Experimental data from PubChem BioAssay AID2060893 (Molecular Pharmacology Branch, DTP, NCI, 2025).

Tested on: K86415-001-R-J1-PDC complex spheroids, viability
Assay: Anticancer human tumor K86415-001-R-J1-PDC patient-derived lung adenocarcinoma cell line growth inhibition [RAS]
Conditions: for IC50: curve of first compound; for viability, T/C: stronger effect = lower value; active = viability on the fitted dose curve at most 10% of control; inactive = the rest
Method in brief: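 Tumour cells grown as complex spheroids with HUVEC endothelial cells and mesenchymal stem cells, treated with RAS pathway inhibitor combinations. Each agent spans half-log steps from near clinical Cmax, or 10 microM where Cmax is unknown.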

[1] = second compound 0.000949 µM, first compound 0.00316 µM
[2] = second compound 0.000949 µM, first compound 0.01 µM
[3] = second compound 0.000949 µM, first compound 0.0316 µM
[4] = second compound 0.000949 µM, first compound 0.1 µM
[5] = second compound 0.000949 µM, first compound 0.316 µM
[6] = second compound 0.000949 µM, first compound 1 µM
[7] = second compound 0.003 µM, first compound 0.00316 µM
[8] = second compound 0.003 µM, first compound 0.01 µM
[9] = second compound 0.003 µM, first compound 0.0316 µM
[10] = second compound 0.003 µM, first compound 0.1 µM
[11] = second compound 0.003 µM, first compound 0.316 µM
[12] = second compound 0.003 µM, first compound 1 µM
[13] = second compound 0.00949 µM, first compound 0.00316 µM
[14] = second compound 0.00949 µM, first compound 0.01 µM
[15] = second compound 0.00949 µM, first compound 0.0316 µM
[16] = second compound 0.00949 µM, first compound 0.1 µM
[17] = second compound 0.00949 µM, first compound 0.316 µM
[18] = second compound 0.00949 µM, first compound 1 µM
[19] = second compound 0.03 µM, first compound 0.00316 µM
[20] = second compound 0.03 µM, first compound 0.01 µM
[21] = second compound 0.03 µM, first compound 0.0316 µM
[22] = second compound 0.03 µM, first compound 0.1 µM
[23] = second compound 0.03 µM, first compound 0.316 µM
[24] = second compound 0.03 µM, first compound 1 µM
[25] = second compound 0.0949 µM, first compound 0.00316 µM
[26] = second compound 0.0949 µM, first compound 0.01 µM
[27] = second compound 0.0949 µM, first compound 0.0316 µM
[28] = second compound 0.0949 µM, first compound 0.1 µM
[29] = second compound 0.0949 µM, first compound 0.316 µM
[30] = second compound 0.0949 µM, first compound 1 µM
[31] = second compound 0.3 µM, first compound 0.00316 µM
[32] = second compound 0.3 µM, first compound 0.01 µM
[33] = second compound 0.3 µM, first compound 0.0316 µM
[34] = second compound 0.3 µM, first compound 0.1 µM
[35] = second compound 0.3 µM, first compound 0.316 µM
[36] = second compound 0.3 µM, first compound 1 µM
[37] = second compound 0.000949 µM, first compound 0.000949 µM
[38] = second compound 0.000949 µM, first compound 0.003 µM
[39] = second compound 0.000949 µM, first compound 0.00949 µM
[40] = second compound 0.000949 µM, first compound 0.03 µM
[41] = second compound 0.000949 µM, first compound 0.0949 µM
[42] = second compound 0.000949 µM, first compound 0.3 µM
[43] = second compound 0.003 µM, first compound 0.000949 µM
[44] = second compound 0.003 µM, first compound 0.003 µM
[45] = second compound 0.003 µM, first compound 0.00949 µM
[46] = second compound 0.003 µM, first compound 0.03 µM
[47] = second compound 0.003 µM, first compound 0.0949 µM
[48] = second compound 0.003 µM, first compound 0.3 µM
[49] = second compound 0.00949 µM, first compound 0.000949 µM
[50] = second compound 0.00949 µM, first compound 0.003 µM
[51] = second compound 0.00949 µM, first compound 0.00949 µM
[52] = second compound 0.00949 µM, first compound 0.03 µM
[53] = second compound 0.00949 µM, first compound 0.0949 µM
[54] = second compound 0.00949 µM, first compound 0.3 µM
[55] = second compound 0.03 µM, first compound 0.000949 µM
[56] = second compound 0.03 µM, first compound 0.003 µM
[57] = second compound 0.03 µM, first compound 0.00949 µM
[58] = second compound 0.03 µM, first compound 0.03 µM
[59] = second compound 0.03 µM, first compound 0.0949 µM
[60] = second compound 0.03 µM, first compound 0.3 µM
[61] = second compound 0.0949 µM, first compound 0.000949 µM
[62] = second compound 0.0949 µM, first compound 0.003 µM
[63] = second compound 0.0949 µM, first compound 0.00949 µM
[64] = second compound 0.0949 µM, first compound 0.03 µM
[65] = second compound 0.0949 µM, first compound 0.0949 µM
[66] = second compound 0.0949 µM, first compound 0.3 µM
[67] = second compound 0.3 µM, first compound 0.000949 µM
[68] = second compound 0.3 µM, first compound 0.003 µM
[69] = second compound 0.3 µM, first compound 0.00949 µM
[70] = second compound 0.3 µM, first compound 0.03 µM
[71] = second compound 0.3 µM, first compound 0.0949 µM
[72] = second compound 0.3 µM, first compound 0.3 µM
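Also: spheroids exposed to agents for seven days before readout.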

C=CC(=O)N1CCN(c2nc(OCC3CCCN3C)nc3c(F)c(-c4nc(N)cc(C)c4C(F)(F)F)c(Cl)cc23)C(C)C1 (stereo not drawn) + CCn1c(-c2cc(N3CCN(C)CC3)cnc2C(C)OC)c2c3cc(ccc31)-c1csc(n1)CC(NC(=O)C1CC1C)C(=O)N1CCCC(N1)C(=O)OCC(C)(C)C2
< 3.16 nM: IC50 (second compound 0.000949 µM) | IC50 (second compound 0.003 µM) | IC50 (second compound 0.00949 µM) | IC50 (second compound 0.03 µM) | IC50 (second compound 0.0949 µM) | IC50 (second compound 0.3 µM)
active: viability, T/C [3] 7.59% | viability, T/C [4] 8% | viability, T/C [5] 8.62% | viability, T/C [6] 8.31% | viability, T/C [7] 9.34% | viability, T/C [8] 6.02% | viability, T/C [9] 5.36% | viability, T/C [10] 5.95% | viability, T/C [11] 6.92% | viability, T/C [12] 5.35% | viability, T/C [13] 4.68% | viability, T/C [14] 4.68% | viability, T/C [15] 4.36% | viability, T/C [16] 4.25% | viability, T/C [17] 4.08% | viability, T/C [18] 3.96% | viability, T/C [19] 3.4% | viability, T/C [20] 3.36% | viability, T/C [21] 2.8% | viability, T/C [22] 2.79% | viability, T/C [23] 3.36% | viability, T/C [24] 3.36% | viability, T/C [25] 2.57% | viability, T/C [26] 2.3% | viability, T/C [27] 3.16% | viability, T/C [28] 2.37% | viability, T/C [29] 2.22% | viability, T/C [30] 3.4% | viability, T/C [31] 2.23% | viability, T/C [32] 2.68% | viability, T/C [33] 2.5% | viability, T/C [34] 2.49% | viability, T/C [35] 3.18% | viability, T/C [36] 2.66%
inactive: viability, T/C [1] 14% | viability, T/C [2] 11.3%

CC1(C)CCC(Nc2ncc(C(F)(F)F)c(-c3c[nH]c4c(P(C)(C)=O)c(C#N)ccc34)n2)CN1 (stereo not drawn) + CCn1c(-c2cc(N3CCN(C)CC3)cnc2C(C)OC)c2c3cc(ccc31)-c1csc(n1)CC(NC(=O)C1CC1C)C(=O)N1CCCC(N1)C(=O)OCC(C)(C)C2
< 0.949 nM: IC50 (second compound 0.003 µM) | IC50 (second compound 0.00949 µM) | IC50 (second compound 0.03 µM) | IC50 (second compound 0.0949 µM) | IC50 (second compound 0.3 µM)
inactive: viability, T/C [37] 57.1% | viability, T/C [38] 45.9% | viability, T/C [39] 37.9% | viability, T/C [40] 39.5% | viability, T/C [41] 42.2% | viability, T/C [42] 39.5% | viability, T/C [43] 24.9% | viability, T/C [44] 18.3% | viability, T/C [45] 20.9% | viability, T/C [46] 20.8% | viability, T/C [47] 24.6% | viability, T/C [48] 23.6% | viability, T/C [49] 10.8% | viability, T/C [50] 10.4% | viability, T/C [51] 11.1% | viability, T/C [52] 13.3% | viability, T/C [53] 12.4% | viability, T/C [54] 14.3%
1.19 nM: IC50 (second compound 0.000949 µM)
active: viability, T/C [55] 6.32% | viability, T/C [56] 7.15% | viability, T/C [57] 6.95% | viability, T/C [58] 7.05% | viability, T/C [59] 6.99% | viability, T/C [60] 8.91% | viability, T/C [61] 5.16% | viability, T/C [62] 5.23% | viability, T/C [63] 6.96% | viability, T/C [64] 5.02% | viability, T/C [65] 6.21% | viability, T/C [66] 7.98% | viability, T/C [67] 3.6% | viability, T/C [68] 4.59% | viability, T/C [69] 5.58% | viability, T/C [70] 6.23% | viability, T/C [71] 5.28% | viability, T/C [72] 6.87%

CCc1c2c(nc3ccc(O)cc13)-c1cc3c(c(=O)n1C2)COC(=O)[C@]3(O)CC + CCn1c(-c2cc(N3CCN(C)CC3)cnc2C(C)OC)c2c3cc(ccc31)-c1csc(n1)CC(NC(=O)C1CC1C)C(=O)N1CCCC(N1)C(=O)OCC(C)(C)C2
inactive: viability, T/C [37] 43.2% | viability, T/C [38] 23.9% | viability, T/C [39] 12.9% | viability, T/C [40] 16.1% | viability, T/C [43] 22% | viability, T/C [44] 13.5% | viability, T/C [45] 12.4% | viability, T/C [46] 13.3%
< 0.949 nM: IC50 (second compound 0.000949 µM) | IC50 (second compound 0.003 µM) | IC50 (second compound 0.00949 µM) | IC50 (second compound 0.03 µM) | IC50 (second compound 0.0949 µM) | IC50 (second compound 0.3 µM)
active: viability, T/C [41] 11.6% | viability, T/C [42] 4.09% | viability, T/C [47] 10.2% | viability, T/C [48] 3.14% | viability, T/C [49] 9.02% | viability, T/C [50] 7.98% | viability, T/C [51] 8.68% | viability, T/C [52] 8.25% | viability, T/C [53] 5.09% | viability, T/C [54] 2.46% | viability, T/C [55] 5.24% | viability, T/C [56] 5.47% | viability, T/C [57] 3.66% | viability, T/C [58] 3.44% | viability, T/C [59] 2.88% | viability, T/C [60] 1.87% | viability, T/C [61] 3.46% | viability, T/C [62] 3.37% | viability, T/C [63] 2.84% | viability, T/C [64] 2.41% | viability, T/C [65] 1.76% | viability, T/C [66] 0.94% | viability, T/C [67] 2.47% | viability, T/C [68] 2.36% | viability, T/C [69] 2.47% | viability, T/C [70] 2.01% | viability, T/C [71] 2.07% | viability, T/C [72] 0.89%

C=CC(=O)Nc1cc(Nc2nccc(-c3cn(C)c4ccccc34)n2)c(OC)cc1N(C)CCN(C)C + CCn1c(-c2cccnc2C(C)OC)c2c3cc(ccc31)N1CCOC(CC(NC(=O)C(C(C)C)N(C)C(=O)C3(F)CCN(C(=O)C#CC(C)(C)N(C)C)CC3)C(=O)N3CCCC(N3)C(=O)OCC(C)(C)C2)C1
< 3.16 nM: IC50 (second compound 0.000949 µM) | IC50 (second compound 0.003 µM) | IC50 (second compound 0.00949 µM) | IC50 (second compound 0.03 µM) | IC50 (second compound 0.0949 µM) | IC50 (second compound 0.3 µM)
active: viability, T/C [9] 10.1% | viability, T/C [10] 8.82% | viability, T/C [11] 6.15% | viability, T/C [12] 5.63% | viability, T/C [15] 11.4% | viability, T/C [16] 7.32% | viability, T/C [17] 5.35% | viability, T/C [18] 5.16% | viability, T/C [21] 9.36% | viability, T/C [22] 8.38% | viability, T/C [23] 5.05% | viability, T/C [24] 4.02% | viability, T/C [27] 10.2% | viability, T/C [28] 8.51% | viability, T/C [29] 5.53% | viability, T/C [30] 5.3% | viability, T/C [33] 11.9% | viability, T/C [34] 5.28% | viability, T/C [35] 5.37% | viability, T/C [36] 4.83%
inactive: viability, T/C [1] 34.5% | viability, T/C [2] 31.8% | viability, T/C [3] 17% | viability, T/C [4] 25.6% | viability, T/C [5] 18.3% | viability, T/C [6] 9.09% | viability, T/C [7] 14.9% | viability, T/C [8] 11.9% | viability, T/C [13] 11.9% | viability, T/C [14] 11.1% | viability, T/C [19] 10.2% | viability, T/C [20] 11.1% | viability, T/C [25] 12.5% | viability, T/C [26] 11.2% | viability, T/C [31] 13.1% | viability, T/C [32] 11.4%
